Laboratory results taken from patent publication US20240131029A1, “SELECTIVE ROCK2 INHIBITION FOR TREATMENT OF EDEMA AND ASSOCIATED CONDITIONS” (President and Fellows of Harvard College, priority 2021, published 2024).
“Also recorded” adds a separate entry of the source.

Legend:
LEC junctions = experiment: junction staining of engineered lymphatic vessels (immunofluorescence); format: cell-based, human; details: 20 μM, IL-2 challenge
Description: (§1) To overcome the issues outlined above, a microfluidic 3D culture model featuring an engineered lymphatic vessel that can drain interstitial fluid was developed. The device includes a polydimethylsiloxane (PDMS) housing and two parallel cylindrical channels within a 3D collagen hydrogel (FIG. 1A). Human dermal lymphatic endothelial cells (LECs) seeded in one channel generated an engineered lymphatic vessel (FIG. 1A) that expressed lymphatic endothelial markers with appropriate apical-basal orientation (FIG. 1A and FIG. 1B). Furthermore, stimulation with the lymphangiogenic vascular endothelial growth factor C (VEGFC) triggered lymphatic sprouting (FIG. 1C). To characterize the integrity of the lymphatic endothelium within the device, their junctional organization was examined by immunofluorescence.
Inflammation is a primary driver of lymphedema (2, 9, 10), so the next set of experiments tested whether inflammatory cytokines could impair drainage in this system. […]

tail vein edema = experiment: mouse tail edema following cautery injury; format: in vivo, mice; details: following cautery injury (FIG. 4A)
Description: Tail volume changes were quantified (FIG. 4B), and drainage to the iliac lymph nodes was assesses 1 hour after intradermal injection of Alexa647-conjugated albumin into tails of mice treated with KD025 or vehicle (FIG. 4C).

[1] = tested on: human dermal lymphatic endothelial cells (LECs), engineered lymphatic vessel; experiment: lymphatics-on-chip lymphatic drainage under cytokine challenge; format: cell-based
Description: as §1
To functionally assess this rudimentary lymphatic vessel required a measure of lymphatic drainage. To accomplish this, the second, cell-free channel was pressurized with a surrogate lymph fluid composed of fluorescently labeled lymph molecules, including fatty acids, phospholipids, albumin, and insoluble particles (data not shown). The interstitial fluid pressure triggered convective fluid transport into the engineered lymphatic vessel. Lymph fluid drained by the lymphatic vessel accumulated in the connected reservoirs and was collected for analysis. Human dermal blood microvascular endothelial cells-generated blood vessels or cell-free channels were used as controls. […] Time-lapse microscopy of drainage further confirmed that fluid entered the luminal space of lymphatic vessels faster than that of blood vessels (FIG. 1H and data not shown).
Inflammation is a primary driver of lymphedema (2, 9, 10), so the next set of experiments tested whether inflammatory cytokines could impair drainage in this system. […] To begin to characterize what signaling pathways might be involved in tightening the lymphatic junctions, inhibitors that might impact IL-2-induced junction assembly were identified (data not shown): PP2, a Src-family of protein tyrosine kinase inhibitor; Wortmannin, a PI3K inhibitor; Y27632, a ROCK inhibitor; GGTI298, a Rap1 inhibitor; NSC23766, a Rac1 inhibitor; Blebbistatin, a Myosin II inhibitor; and Cpd22, an integrin-linked kinase inhibitor.

[2] = tested on: lymphedema in mouse tails; experiment: mouse tail lymphedema model (surgical ligation of peripheral lymphatics); format: in vivo
Description: To investigate the potential efficacy of ROCK inhibition in lymphedema, Y27632 was tested in an established mouse model of lymphedema (13, 14). Lymphedema was induced by surgical ligation of peripheral lymphatics in mouse tails (FIG. 2G). […] Tail-injured mice were left without any treatment for one month.

[3] = clinically used ROCK inhibitors, FIG. 2C

## CC(C)NC(=O)COc1cccc(-c2nc(Nc3ccc4[nH]ncc4c3)c3ccccc3n2)c1 [KD025, 2-[3-[4-(1H-indazol-5-ylamino)-2-quinazolinyl]phenoxy]-N-(1-methylethyl)-acetamide]
LEC junctions
  tightening of the LEC junctions: reversed tightening of the LEC junctions
Tail vein edema
  visible tail vein edema swelling: reduced visible tail vein edema swelling
[1]; 20 μM, IL-2 challenge (FIG. 3L)
  lymphatic drainage: reversed; also recorded: sufficient to reduce lymphatic drainage

## C[C@H]1CNCCCN1S(=O)(=O)c1cccc2cncc(F)c12 [Ripasudil]
[1]; [3]
  lymphatic drainage: similarly improved lymphatic drainage

## C[C@@H](N)[C@H]1CC[C@H](C(=O)Nc2ccncc2)CC1 [Compound Y27632]
[2]; 1 h after intradermal Alexa647-conjugated albumin (FIG. 2H)
  drainage to proximal lymph nodes compared to untreated control mice: tenfold higher drainage
[2]; delayed treatment, one month after tail injury
  time to complete resolution of lymphedema following treatment: ≤ 2 weeks
[2]; delayed treatment, one month after tail injury (FIG. 2I, 2J)
  reversal of existing chronic lymphedema: completely resolved the lymphedema
[2]; treatment after surgical ligation (FIG. 2G)
  lymphedema (tail volume change), prevention: completely prevented lymphedema
[1]; GM-CSF and G-CSF treated conditions (FIG. 2A, 2B)
  lymphatic drainage: normalized
[1]; IL-2 treated lymphatic vessels
  lymphatic drainage: completely normalized the impaired drainage

## O=S(=O)(c1cccc2cnccc12)N1CCCNCC1 [Fasudil]
[1]; [3]
  lymphatic drainage: similarly improved lymphatic drainage
